Reference: ChEMBL document CHEMBL5209582, “Membrane potential based assay for SLC6A6 using HEK-293 SLC6A6 OE cells” (2022)

Molecular target: T1, Sodium- and chloride-dependent taurine transporter (Homo sapiens, UniProt P31641)
T1 sequence (P31641 whole entry): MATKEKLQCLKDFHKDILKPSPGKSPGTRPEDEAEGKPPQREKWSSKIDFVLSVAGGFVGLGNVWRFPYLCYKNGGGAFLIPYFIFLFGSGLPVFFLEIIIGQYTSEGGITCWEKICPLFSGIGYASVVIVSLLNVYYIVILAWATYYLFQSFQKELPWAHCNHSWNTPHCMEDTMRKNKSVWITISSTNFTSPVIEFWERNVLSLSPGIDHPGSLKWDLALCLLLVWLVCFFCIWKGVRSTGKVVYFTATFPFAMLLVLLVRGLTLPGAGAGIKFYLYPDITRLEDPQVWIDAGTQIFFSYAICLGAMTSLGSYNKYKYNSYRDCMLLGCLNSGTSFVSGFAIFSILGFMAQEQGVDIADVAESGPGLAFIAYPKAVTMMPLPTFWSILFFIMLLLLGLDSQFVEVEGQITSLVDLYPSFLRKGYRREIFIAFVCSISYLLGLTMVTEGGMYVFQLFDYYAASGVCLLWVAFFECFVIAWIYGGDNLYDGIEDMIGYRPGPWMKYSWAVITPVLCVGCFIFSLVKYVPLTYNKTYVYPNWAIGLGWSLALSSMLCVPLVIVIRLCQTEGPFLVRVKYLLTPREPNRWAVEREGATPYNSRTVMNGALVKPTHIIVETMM
Test: Substrate uptake by the Taurine Transporter (TauT, SLC6A6) as assessed by the fluorescent FLIPR membrane potential dye in HEK-293 JumpIN-SLC6A6 cells (PubChem AID: 1794824)
Format: functional, cell-based, HEK293

EC50	Structure (SMILES)
354 µM	NCCCC(=O)O [GAMMA-AMINOBUTYRIC ACID]
10 µM	NCCS(=O)(=O)O [TAURINE]
